According to paper PMC4726707, “Effect of Copper and Zinc on the Single Molecule Self-Affinity of Alzheimer’s Amyloid-β Peptides” (PLoS ONE, 2016):
pKd: −log10 of the molar value. “Also recorded” adds a separate entry of the source. Like-named read-outs stand apart in the source and are kept apart here.

Key:
amyloid-β (1–42) (Aβ42) = target: T1, amyloid-β (1–42) (Aβ42) (Homo sapiens, UniProt P05067); assay: Single molecule force spectroscopy / dynamic force spectroscopy (AFM) of Aβ-Aβ dimer dissociation, Friddle-De Yoreo model; assay type: binding; details: for change of Aβ-Aβ self-affinity / dimer dissociation constant by metal ion: 20 nM (nanomolar) metal ion vs aqueous HEPES buffer control; for change of association rate (kon) of Aβ-Aβ vs aqueous control: 20 nM metal ion, kon = koff/Kd; for pKd: read-out: chemical dissociation constant, Kd
T1 construct: purchased rPeptide (Bogart USA)
Description: In this work we used single molecule force spectroscopy (SMFS) to further elucidate the mechanism of the very initial stage of amyloid aggregation—the dimerization of two peptides. SMFS is a nanoscale technique whereby an atomic force microscopy (AFM) tip is used to probe the unbinding of two molecules of interest—one bound to the surface, the other to the tip. When AFM tip is brought to the surface the binding between two Aβ monomers occur and when the tip is retracted the unbinding forces between two monomers are measured. To extract kinetic and thermodynamic parameters governing the system, the retraction velocity of the tip is varied. This iteration of SMFS is referred to as dynamic force spectroscopy (DFS).
We prepared our experiments in accordance with our previous force spectroscopy experiments, of which the methods are detailed extensively in [23]. Briefly, Veeco MLCT SiNi AFM cantilever were cleaned by soaking in ethanol and exposing to UV light for 30 minutes. […] The mica and cantilevers were then soaked for 3 hours in a solution of 3400 MW NHS-PEG-MAL (Laysan Bio, Alabaster GA) solution. […] The surface of the cantilever tip and mica surface were soaked in the Aβ solution for 30 minutes. Following rinsing, unreacted maleimide groups were quenched with b-merceptoethanol. Tips and mica were then rinsed and stored in HEPES buffer.
Typical cantilever spring constants were between 8 and 120 mN/m but varied with each individual experiment. Spring constants were measured using Hutter’s thermal noise method. A series of force curves were taken with an approach and retract velocity varying between 50 and 10,000 nm/s resulting in loading rates between 0.3 and 300 nN/s. Following the collection of an Aβ42 data set in HEPES buffer, a 20 nM metal ionic solution (Cu^2+ or Zn^2+) in HEPES buffer was added to the liquid cell of the AFM and additional force curves were collected for comparison.
JPK data analysis software was used to analyze force curves. […] The force curves were smoothed, the x-axis leveled, both axes set to 0, and the force curve corrected for cantilever bending to obtain tip-sample separation, z. A WLC fit was obtained for each force curve while rupture force and contour length data were recorded. Data was sorted in order of rupture force and the highest rupture force data were eliminated using Poisson statistics to eliminate force curves that were likely the result of simultaneous multiple unbinding events.
Loading rates were corrected to account for the effect of the PEG linker. We fit the Friddle-De Yoreo reversible binding equation to the entirety of the dataset (comprised of the rupture force and corrected loading rate of each force curve) using a Levenberg-Marquardt best fit algorithm in Origin 9.0 graphing software. For pooled datasets, we used the mean spring constant of the cantilevers used in the experiments. We extracted the equilibrium force, feq, the thermal scaling factor, fβ, and the kinetic off rate, koff(feq) at the equilibrium force as well as standard errors from the dataset using the graphing software. These parameters were then used to calculate parameters ΔG (the difference in free energy between the bound and free states), xβ (the width of the energy barrier), koff (the kinetic dissociation, or off- rate), and Kd (the dissociation constant) using the equations used in [34, 35].
Analysis of variance (ANOVA) testing was conducted on ΔG, xβ, koff, and Kd. Following the ANOVA test, a post hoc Welsh’s t-test was conducted to compare the parameters for the aqueous experiments compared to the copper experiments and for the aqueous environment experiments compared to the zinc experiments.

Aβ [1] = details: cited from earlier work
Description: The role of metal ions on amyloid aggregation and toxicity has been studied extensively. […] Cu^2+ ions increase neurotoxicity by both accelerating amyloid aggregation and increasing oxidative stress. This increased propensity of Aβ to aggregate in a Cu^2+ rich environment has been attributed to Cu^2+ ions causing Aβ to move closer to its isoelectric point, thereby inducing aggregation. […] In this work, rather than determining the affinity of metal ions to the Aβ monomer, we calculated the self-affinity of two Aβ42 peptides in the presence of copper and zinc ions.

Aβ (1–42) = details: with Cu^2+ ions; cited from earlier work
Description: Our previous results led us to hypothesize that since […] AD is largely a function of abnormal Aβ clearance, increased affinity of Aβ would make amyloid clearance considerably more problematic. In this work we used single molecule force spectroscopy (SMFS) to further elucidate the mechanism of the very initi ...

Aβ [2] = details: cited from earlier work; remark: listed apart in the source
Description: Despite the well established effect ...

For `[Cu+2]` [Cu^2+, copper], the “change of Aβ-Aβ self-affinity / dimer dissociation constant by metal ion” value (amyloid-β (1–42) (Aβ42); listed as copper) is given as “do not change the single molecule affinity of Aβ to another Aβ peptide in a statistically significant way; also recorded: does not change the dissociation constant by a statistically significant amount; also recorded: did not measure a significant effect”, the “change of association rate (kon) of Aβ-Aβ vs aqueous control” value (amyloid-β (1–42) (Aβ42)) is given as “approximately half an order of magnitude higher; also recorded: approximately five times higher than the association rate in the control experiments” and the “Cu^2+-Aβ affinity” value (Aβ [1]) is given as “nanomolar to picomolar range”. The “Cu^2+-Aβ affinity” value (Aβ [1]; listed as Copper) was “nano- to picomolar range”, the “unbinding force between two Aβ (1–42) peptides” value (Aβ (1–42)) was “increased the unbinding force between two Aβ (1–42) peptides” and the “nucleation and elongation of amyloid fibril formation” value (Aβ [2]; substoichiometric concentrations of Cu^2+ ions) was “induce acceleration in both the nucleation and elongation phases of amyloid fibril formation”. For the same molecule, the Aβ aggregation onset (Aβ [2]; trace concentrations of copper vs aqueous without metal ions) was “Aβ begins to aggregate instantly compared to the characteristic lag period”.

In the case of `[Zn+2]` [Zn^2+, zinc], the “change of Aβ-Aβ self-affinity / dimer dissociation constant by metal ion” value (amyloid-β (1–42) (Aβ42)) was “decreases the affinity of Aβ-Aβ interactions by an order of magnitude”, the “change of Aβ-Aβ self-affinity / dimer dissociation constant by metal ion” value (amyloid-β (1–42) (Aβ42); listed as zinc) was “decrease the affinity of Aβ-Aβ by an order of magnitude; also recorded: increases the dimer dissociation constant (which corresponds to a decreased monomer-monomer chemical affinity) by an order of magnitude” and the “change of association rate (kon) of Aβ-Aβ vs aqueous control” value (amyloid-β (1–42) (Aβ42)) was “half an order of magnitude lower; also recorded: one-fifth of the control experiment”. The “change of height of the energy barrier” value (amyloid-β (1–42) (Aβ42); with Zn^2+ 20 nM vs aqueous control) was “decreased the height of the energy barrier”.

For amyloid-β (1–42) [Aβ-Aβ], the “ΔG (free energy difference between bound and unbound states) for Aβ-Aβ unbinding” value (amyloid-β (1–42) (Aβ42); aqueous HEPES 50 mM buffer, pH 7.4, 150 mM NaCl, no metal ion added) was 7.83 ± 3.03 kBT, the pKd (amyloid-β (1–42) (Aβ42); control, Aβ dimerization in HEPES buffer) was 3.40 and the pKd (amyloid-β (1–42) (Aβ42); with 20 nM Cu^2+) was 3.76. For the same molecule, the “ΔG (free energy difference between bound and unbound states) for Aβ-Aβ unbinding” value (amyloid-β (1–42) (Aβ42); with Cu^2+ [20nM] in HEPES buffer pH 7.4) was 8.66 ± 1.62 kBT and the “ΔG (free energy difference between bound and unbound states) for Aβ-Aβ unbinding” value (amyloid-β (1–42) (Aβ42); with Zn^2+ [20nM] in HEPES buffer pH 7.4) was 4.89 ± 1.35 kBT.
